Reference: patent US4678780A, “Anti-spasmodic agents having a ring in the main chain” (United Pharmaceuticals, Inc., priority 1986, dated 1987)
Structures can show the parent of a compound that is named as a salt.

Assays:
[1] = in vivo; cited from earlier work
[2] = system: gastrointestinal tract, biliary tract, ureter and uterus; settings: in vivo; cited from earlier work
muscarinic receptors = format: binding, rabbit (New Zealand White); settings: at a concentration of 1.0 × 10^-5 M; 0.1 nM [3H]QNB; 37° C., 60 min; pH 7.4

| Compound | atropinic side effects [1] | decrease spasm [2] | % inhibition of ^3 H[QNB] binding (muscarinic receptors) [%] |
| --- | --- | --- | --- |
| CCN(CC)CCSC(=O)C(c1ccccc1)c1ccccc1 [Thiphenamil hydrochloride] | without producing characteristic atropinic side effects on salivary and sweat glands, GI glands, the eye or the cardiovascular system | decrease spasm of the gastrointestinal tract, biliary tract, ureter and uterus | – |
| CCN(CC)CCSC(=O)c1ccc(C(C)(C)C)cc1 [4-t-butyl-benzoyl-thio-S-(2-diethylaminoethyl)-ester.HCl] | – | – | 21 |
